Laboratory results from patent US8431530B2, “Compositions and methods for treating aids or cancer by inhibiting the secretion of microparticles” (priority 2009, dated 2013).

Columns and labels:
[1] = system: R7 in Jurkat cells; assay: Confocal microscopy of p24 in R7 transfected cells; format: cell-based, HIV; conditions: day 3, 6, 10, 14, 17 after transfection with R7, accumulation in cytoplasm day 3, 6, 10
Text: FIG. 4A is a composite of diagrams showing ELISA analysis of p24 concentration in Jurkat cells (panel A), HEK293 cells (panel B), THP-1 Monocytes (panel C) and U937 monocytes (panel D). FIG. 4B is a composite of confocal microscope pictures showing blocking of p24 release in Jurkat cells by SMRwt peptide (panel A) but not by SMRrmt peptide (panel B). FIG. 4C is a composite of confocal and electron microscope pictures showing viral particle distribution in Jurkat cells at day 6 post-transfection with R7 and SMRwt peptide (panel A-1) or with R7 and SMRmt peptide (panel B-1). FIG. 4D is a composite of confocal and electron microscope pictures showing viral particle distribution in Jurkat cells at day 14 post-transfection with R7 and SMRwt peptide (panel A-2) or with R7 and SMRmt peptide (panel B-2), FIG. 4E is a composite of confocal and electron microscope pictures showing viral particle distribution in subcellular structures in Jurkat cells at day 6 post-transfection with R7 and SMRwt peptide (panel A-1) or with R7 and SMRmt peptide (panel B-1) in Jurkat cells and at day 14 post-transfection with R7 and SMRwt peptide (panel A-2) or with R7 and SMRmt peptide (panel B-2) in Jurkat cells.
The effect of SMRwt, however, seems to be temporary. It appears that Jurkat and HEK cells can degrade the peptide over time, while U937 monocytes cannot degrade the peptide. […]

[2] = system: Mortalin/GRP75 and other cellular factors of Jurkat cell lysates; assay: FLAG immuno-precipitation pulldown of cellular factors, MS and Western blot; format: binding; conditions: FLAG IP on Jurkat cell lysates
Experimental: SMRwt vs. SMRmt peptides were used in conjunction with FLAG immuno-precipitation on Jurkat cell lysates to pulldown cellular factors that interacted with the SMRwt antagonist, but not with the SMRmt negative control. The cellular factor(s) that interact with the antagonist are analyzed by the FLAG IP assay. Briefly, cell lysates are combined with AminoLink Plus resin coupled to FLAG-tagged SMR peptides. SMR-specific cellular proteins (ROY) bind to the SMR peptides on the resin. Non-specific contaminants (G BIV) are washed off of the resin and removed by centrifugation. The SMR-specific cell proteins (ROY) are eluted and collected. Some strongly bound contaminants (V) are also eluted and collected.
Mortalin interacts with p53, and is shown to be involved in apoptosis and vesicle transport (MAC complex). It is also found in microvesicles released by tumor cells.
The gel was also Western probed with α-Mortalin antibody. A protein with a molecular weight of ˜75 kDa was detected in the lanes containing the cell lysate, the antagonist eluate, and the antagonist affinity resin (FIG. 13, panel B, Lanes 1, 3, and 5), but not in the negative control or negative control peptide eluate's lanes (FIG. 13, panel B, Lanes 2 and 4).

[3] = system: Jurkat cells; assay: Cellular toxicity assay, fluorescein diacetate and propidium iodide; format: cell-based; conditions: peptide alone by Chariot, 48 hours
Text: FIG. 12 is a composite of pictures showing the result of cellular toxicity assay for cells transfected with SMRwt or SMRmt peptide. Panels A-1 and B-1: Propidium iodide staining of cells transfected with SMRwt and SMRmt peptide, respectively. Panels A-2 and B-2: Fluorescein diacetate staining of cells transfected with SMRwt and SMRmt peptide, respectively. Panels A-3 and B-3: Phase microscope image of cells transfected with SMRwt and SMRmt peptide, respectively.
SMRwt or SMRmut (negative control) peptide alone were transfected into Jurkat cells using Chariot. The transfected cells were allowed to grow for 48 hours. The cells were assayed by Fluorescein diacetate (FD; taken up by live cells and converted to FITC making cells fluoresce green) and propidium iodide (PI; diffuse across porous membranes of dying cells fluoresing red inside those cells) for cytotoxicity.

[4] = system: HIV-1wtNef-GFP vesicle secretion in Jurkat cells; assay: Nef-GFP co-transfection secretion assay; format: cell-based; conditions: 500 ng HIV-1wtNef-GFP + 7.8-500 ng peptide, Chariot
Experimental: In another experiment, Jurkat cells were co-transfected with 500 ng HIV-1wtNef-GFP and 7.8-500 ng of SMRwt peptide by Chariot. As shown in FIG. 3A the SMRwt peptide inhibits the vesicle secretion in Jurkat cells.

[5] = system: R7 in U937 monocytes; assay: p24 ELISA of supernatant after R7 co-transfection; format: cell-based, HIV; conditions: up to 36 days
Experimental: Jurkat cells, HEK293 cells, THP-1 monocytes and U937 monocytes were co-transfected with either R7 […] Nef SMR wt (antagonist) or with R7+Nef SMR mt (nonfunctional antagonist) by Chariot™ Kit. The transfection efficiency was 30-40%.
R7 is a clone containing the viral genome. Transfection into cells allows expression of the viral genome and ultimately virion formation and release. The amount of virion production in the extracellular supernatant is measured through p24 protein (viral protein).
At 2 hours, 3 days, 6 days, 9 days, 13 days, 15 days, 17 days, 20 days, 23 days, 27 days and 36 days post-transfection, 0.5 ml supernatant were collected from each plate, mixed with 0.5 ml fresh media and analyzed by p24 ELISA assay. 1.5 ml of supernatant were collected from each plate and spun in a TLA100 rotor at 400,000×g for 1 hour to create the pellets. The pellets were used for Western blot analysis with p24 mAb and Nef mAb.

H-VGFPVAAVGFPVDYKDDDDK-OH [SMRwt]
p24 release (confocal microscopy) [1]: blockage of p24 release
~75 kDa protein in peptide eluate, Western probed with α-Mortalin antibody [2]: detected
cellular proteins in bands of the SMRwt lane but not the SMRmt lane (MALDI TOF MS/MS, LC/MS/MS) ([2]; SDS PAGE): Mortalin/GRP75; Myosin 10; Vimentin; GRP78; HSC70
dying cells (propidium iodide) [3]: < 2%
cytotoxicity (in words) ([3]; FD/PI): very little or no cytotoxicity
vesicle secretion (Nef-GFP) [4]: inhibits the vesicle secretion in Jurkat cells in a dose-dependent manner
p24 in supernatant [5]: little p24
